Where a name gives a salt, the structure may show the parent alone.
Experiments:
[1] = test system: THP-1 cells (TNFα secretion on human IgG-coated plate); assay: TNFα generation assay; type: cell-based; conditions: IFN-γ differentiated THP-1 cells, 7 hours, AlphaLISA, read-out: IC50 of TNFα generation inhibitory activity
Outline: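 THP-1 cells were differentiated with 10 ng/ml IFN-γ for 2 days, then preincubated with compound for 30 min at room temperature. They were then plated at 5×10^4 cells/well on plates coated with human IgG (10 μg/ml). TNFα secreted over 7 h of culture was quantified by AlphaLISA.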

[2] = test system: THP-1 cells (phagocytosis of opsonized Escherichia coli); assay: Antibody-dependent phagocytosis assay; type: cell-based; conditions: Homo sapiens; IFNγ differentiated THP-1 cells, opsonized pHrodo Escherichia coli, 3 hours; read-out: IC50 upon phagocytosis inhibition
Outline: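 THP-1 cells were differentiated to macrophage-like cells with 10 ng/ml IFNγ for 2 days, then treated with test compound for 30 min at room temperature. pHrodo-labeled E. coli opsonized with anti-E. coli antibody were added for 3 h at 37° C. Phagocytosis by viable (Calcein AM-positive) cells was quantified by imaging.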

[3] = test system: rat type II collagen arthritis; assay: Rat type II collagen-induced arthritis; type: in vivo; conditions: female Lewis rats, oral administration 10 mg/kg/day, Day 7 to Day 20 once daily, Student's t-test
Method: The compounds were tested to examine effects upon rat type II collagen arthritis. Equivalent volumes of 0.05 mol/L acetic acid in which a 3 mg/mL bovine type II collagen solution (Collagen Gijutsu Kenshu-Kai) had been dissolved and Freund's incomplete adjuvant (Wako Pure Chemical Industries, Ltd.) were mixed to prepare an emulsion. A portion of the emulsion (0.5 ml) was intradermally injected into the tail bases of 6- to 8-week-old female Lewis rats (Charles River Laboratories Japan, Inc.) (Day 0). Each rat was subjected to the same treatment on Day 7 after the initial inoculation so as to induce arthritis. Each test compound was orally administered from Day 7 to Day 20 once daily. At a given time during the period from Day 7 to Day 21, the rat hindlimb volume was determined using a plethysmometer (UGO BASILE), and the result was designated as an arthritis index.

[4] = test system: mouse thrombocytopenia induced by anti-mouse CD41 antibody; assay: Mouse thrombocytopenia model; type: in vivo; conditions: Platelet, female BALB/c mice, 50 mg/kg 1 hour before anti-CD41 antibody, blood sampling 4 hours after antibody, read-out: improvement of platelet count compared with the control group
Method: Test compounds were tested to examine effects upon mouse thrombocytopenia. Each test compound (50 mg/kg) was administered to 5- to 7-week-old female BALB/c mice (Charles River Laboratories Japan, Inc.). One hour thereafter, an anti-mouse CD41 ([…]) antibody (SCB) (1 μg (200 μl)) was intravenously administered to each mouse so as to induce thrombocytopenia. Four hours after administration of the anti-CD41 antibody, blood sampling from the postcava was performed. The platelet count was determined using an automated hematology analyzer.

[5] = test system: 191 types of kinases excluding Syk; assay: Selectivity of kinase inhibition (Profiler Pro kits); type: biochemical; conditions: test compound 100 nM; 191 kinases excluding Syk
Method: The concentrations of test compounds were adjusted to 100 nM. The test compounds were examined using Profiler Pro kits (Caliper) in terms of activity against each of 191 types of kinases excluding Syk.

[6] = target: T1, glutathione S-transferase (GST)-linked full-length human Syk protein (Homo sapiens, UniProt P43405); assay: Syk enzyme assay; type: biochemical; conditions: 0.83 nM Syk, time-resolved fluorescence; read-out: IC50 of Syk-inhibitory activity
T1 construct: glutathione S-transferase (GST)-linked full-length human Syk protein; purchased Carna Biosciences; host or cells: Baculovirus expression system
Outline: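 Phosphotyrosine on a biotin-peptide substrate (0.5 μM) was read by time-resolved fluorescence at 615 and 665 nm with Eu-anti-pTyr antibody and APC-streptavidin after 1 h EDTA stop.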

C[C@H](N)[C@H](Nc1nc(Nc2cnc(N3CCOCC3)c(F)c2)c(C(N)=O)cc1F)C1CC1 [Example 2-76, 6-(((1R,2S)-2-amino-1-cyclopropylpropyl)amino)-5-fluoro-2-((5-fluoro-6-morpholinopyridin-3-yl)amino)nicotinamide]
IC50 [1]: 130 to 200 nM | IC50 [2]: 1000 to 3000 nM | hindlimb swelling on Day 20 compared with the control group [3]: significantly inhibited hindlimb swelling | change in vivo at 50 mg/kg [4]: ≥ 50% | number of kinases other than Syk with kinase inhibitory rate of 75% or more [5]: 8 types of kinases | IC50 [6]: 10 to 50 nM

CN(C)c1nn(C)c2c(F)cc(Nc3nc(N[C@@H]4CCCC[C@@H]4N)c(F)cc3C(N)=O)cc12 [Example 2-184, 6-(((1R,2S)-2-aminocyclohexyl)amino)-2-((3-(dimethylamino)-7-fluoro-1-methyl-1H-indazole-5-yl)amino)-5-fluoronicotinamide hydrochloride]
IC50 [1]: 65 to 130 nM | IC50 [2]: < 1000 nM | hindlimb swelling on Day 20 compared with the control group [3]: significantly inhibited hindlimb swelling | change in vivo at 50 mg/kg [4]: ≥ 50% | IC50 [6]: < 10 nM

From patent US9051310B2, “Nicotinamide derivative or salt thereof” (FUJIFILM Corporation, priority 2011, dated 2015)
